Laboratory results as given in patent publication EP2446893A1 (priority 2010, dated 2012).
Where two headings read alike, the source gives them in different places. Starred links: 1 amine or outer side, 2 acyl side, 3 side chain; linkers in the order of their positions; H or OH if unused. Non-standard residues stand in square brackets, D forms with d. Residues, ends and D or L forms follow the SMILES beside them. No end group written: not given here. ξ: configuration not given here. X1 = O=C(C(Cc1ccc(O)cc1)N=CC(Cc1ccc(O)cc1)N[*:1])[*:2]; Pro(4S-Me) = C[C@@H]1CN[C@H](C(=O)O)C1; d(hSer) = N[C@H](CCO)C(=O)O; ξY = NC(Cc1ccc(O)cc1)C(=O)O

Experiments:
OATP1B1 [1] = target: T1, OATP1B1 (Homo sapiens, UniProt Q9Y6L6); format: cell-based
Target sequence in this assay (Q9Y6L6 whole entry, looked up): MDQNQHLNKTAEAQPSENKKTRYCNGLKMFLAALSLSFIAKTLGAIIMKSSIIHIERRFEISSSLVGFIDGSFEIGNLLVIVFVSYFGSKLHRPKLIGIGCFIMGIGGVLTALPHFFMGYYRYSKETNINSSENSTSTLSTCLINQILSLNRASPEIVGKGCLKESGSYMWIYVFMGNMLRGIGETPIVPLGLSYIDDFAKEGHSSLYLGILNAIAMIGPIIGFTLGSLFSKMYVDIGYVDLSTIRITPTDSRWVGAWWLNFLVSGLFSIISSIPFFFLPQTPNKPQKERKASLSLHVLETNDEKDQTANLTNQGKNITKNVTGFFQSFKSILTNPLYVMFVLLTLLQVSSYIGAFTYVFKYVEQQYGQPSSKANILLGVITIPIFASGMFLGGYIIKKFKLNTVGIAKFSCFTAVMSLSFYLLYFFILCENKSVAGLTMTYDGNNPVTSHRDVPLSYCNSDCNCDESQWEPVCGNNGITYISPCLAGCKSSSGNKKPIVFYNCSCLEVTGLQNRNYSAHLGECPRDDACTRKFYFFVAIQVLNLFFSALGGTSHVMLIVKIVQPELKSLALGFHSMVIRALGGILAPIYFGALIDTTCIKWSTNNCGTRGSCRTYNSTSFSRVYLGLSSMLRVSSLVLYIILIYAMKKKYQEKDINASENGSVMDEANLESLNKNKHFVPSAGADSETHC

primary rat hepatocytes [2] = assay: hepatocyte toxicity / long-term viability (microscopy, WST-1); format: cell-based; details: for inherent toxicity (morphology, growth, mitochondrial dehydrogenase activity of hepatocytes): hepatocytes incubated for 96 hours; for toxicity for primary rat hepatocytes: not shown
Protocol: (§1) Rat hepatocytes were isolated by in vitro collagenase perfusion, Mellgren G, et al., Journal of Cellular Physiology 1995;163:232-240. Experimental conditions were as described in Herfindal L, et al., J Med Chem 2009;52:5758-5762, except for assay of NaN3 and general cytotoxicity, where the hepatocytes were seeded in collage-coated 24-well culture dishes. Microinjection of hepatocytes was as described previously, Fladmark KE, et al., Hepatology 1997;25:847-855. The hepatocyte death (by apoptosis or necrosis) was evaluated by microscopy. Long-term hepatocyte viability was assessed also by the WST-1 colorimetric assay of mitochondrial dehydrogenase activity (Roche Applied Sciences, Mannheim, Germany).

[3] = solubility in physiological saline; format: physicochemical
[4] = stability on storage and in solution; format: physicochemical
CaM-KII = format: biochemical
OATP1B1 [5] = target: T1, OATP1B1
Target sequence in this assay (Q9Y6L6 whole entry): as the sequence (Q9Y6L6 whole entry, looked up) above

Oatp1b2 [6] = target: T2, Oatp1b2 (Rattus norvegicus, UniProt Q9QZX8)
T2 sequence (Q9QZX8 1-687): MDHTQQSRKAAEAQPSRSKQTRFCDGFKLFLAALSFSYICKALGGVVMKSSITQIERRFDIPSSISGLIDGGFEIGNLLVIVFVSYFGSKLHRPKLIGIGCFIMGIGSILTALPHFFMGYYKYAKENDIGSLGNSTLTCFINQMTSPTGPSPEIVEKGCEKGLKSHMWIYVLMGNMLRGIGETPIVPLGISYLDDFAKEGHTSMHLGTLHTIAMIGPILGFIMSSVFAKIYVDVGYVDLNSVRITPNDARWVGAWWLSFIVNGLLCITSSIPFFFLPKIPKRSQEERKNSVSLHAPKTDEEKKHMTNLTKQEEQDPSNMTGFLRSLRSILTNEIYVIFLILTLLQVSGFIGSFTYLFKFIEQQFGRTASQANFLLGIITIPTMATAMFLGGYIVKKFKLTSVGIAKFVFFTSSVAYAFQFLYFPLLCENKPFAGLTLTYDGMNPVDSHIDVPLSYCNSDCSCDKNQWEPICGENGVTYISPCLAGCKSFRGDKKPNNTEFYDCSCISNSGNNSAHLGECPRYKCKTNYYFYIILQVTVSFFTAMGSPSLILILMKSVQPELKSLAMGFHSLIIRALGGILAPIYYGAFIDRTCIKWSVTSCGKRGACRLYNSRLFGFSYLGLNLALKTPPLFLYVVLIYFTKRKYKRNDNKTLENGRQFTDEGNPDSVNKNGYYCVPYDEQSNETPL

OATP1B3 [7] = target: T3, OATP1B3 (Homo sapiens, UniProt Q9NPD5)
primary rat hepatocytes [8] = system: primary rat hepatocytes
HEK 293 cells = assay: toxicity for HEK 293 cells with and without OATP1B1/B3 overexpression; details: not shown
OATP1B1 [9] = target: T1, OATP1B1; remark: listed apart in the source
Target sequence in this assay (Q9Y6L6 whole entry): as the sequence (Q9Y6L6 whole entry, looked up) above

Oatp1b2 [10] = target: T2, Oatp1b2; remark: listed apart in the source
[11] = target: rat hepatocyte channel Oatp1b2 (rat) (UniProt Q9QZX8); assay: cell-based or functional assay
primary rat hepatocytes [12] = format: cell-based; details: hepatocytes incubated for 96 hours
Protocol: as §1

OATP1B3 [13] = target: T3, OATP1B3; details: Gui et al. 2010; cited from earlier work

T3 sequence (Q9NPD5 whole entry): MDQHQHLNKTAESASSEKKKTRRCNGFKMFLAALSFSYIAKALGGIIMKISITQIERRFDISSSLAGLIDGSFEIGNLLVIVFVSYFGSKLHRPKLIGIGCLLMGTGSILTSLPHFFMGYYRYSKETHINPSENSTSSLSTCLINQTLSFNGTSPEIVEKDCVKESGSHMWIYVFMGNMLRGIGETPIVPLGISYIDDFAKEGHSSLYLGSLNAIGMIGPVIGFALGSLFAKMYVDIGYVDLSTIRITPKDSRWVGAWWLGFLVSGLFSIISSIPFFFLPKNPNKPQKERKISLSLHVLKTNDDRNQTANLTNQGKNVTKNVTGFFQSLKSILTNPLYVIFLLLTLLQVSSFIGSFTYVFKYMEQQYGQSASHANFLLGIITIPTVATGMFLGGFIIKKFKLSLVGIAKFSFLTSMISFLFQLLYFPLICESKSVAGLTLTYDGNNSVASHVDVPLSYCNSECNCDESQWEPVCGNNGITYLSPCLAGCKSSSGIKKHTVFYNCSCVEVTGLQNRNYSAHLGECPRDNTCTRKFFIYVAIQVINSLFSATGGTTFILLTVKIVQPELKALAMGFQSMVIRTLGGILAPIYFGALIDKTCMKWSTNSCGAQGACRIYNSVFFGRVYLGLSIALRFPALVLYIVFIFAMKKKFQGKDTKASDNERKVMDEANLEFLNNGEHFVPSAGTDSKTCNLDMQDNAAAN

Molecule: C/C=C1/C(=O)N[C@@H](C(=O)O)[C@H](C)C(=O)N[C@@H](CCCNC(=N)N)C(=O)N[C@@H](/C=C/C(C)=C/[C@H](C)[C@H](Cc2ccccc2)OC)[C@H](C)C(=O)N[C@@H](C(=O)O)CCC(=O)N1C [nodularin]
- Km (OATP1B1 [1]): 32 nM

Molecule: CC(C)[C@@H]1NC(=O)[C@@H]2CCCN2C(=O)[C@@H](CCO)NC(=O)C(Cc2ccc(O)cc2)NC(=O)C(Cc2ccc(O)cc2)N=CC(Cc2ccc(O)cc2)NC(=O)[C@@H]2C[C@H](C)CN2C1=O (stereo partly drawn) [Ncp-M1] (cyclo([X1][ξY][d(hSer)]PV[Pro(4S-Me)]))
- inherent toxicity (morphology, growth, mitochondrial dehydrogenase activity of hepatocytes) (primary rat hepatocytes [2]): no apparent inherent toxicity
- toxicity for primary rat hepatocytes (primary rat hepatocytes [2]): non-toxic
- solubility in physiological saline [3]: high solubility
- stability in solution ([4]; in solution, in particular acidic solutions): degrade in solution
- stability on storage ([4]; stored at -70°C): non-stable
- interference with intracellular steps of microcystin action (protein phosphatase inhibition, CaM-KII activation, ROS production, actin rearrangement) (CaM-KII): did not interfere
- Ki (OATP1B1 [5]): 1500 nM
- Ki (Oatp1b2 [6]): 350 nM
- Ki (OATP1B3 [7]): 0.01063 nM
- hepatocyte uptake of microcystin and nodularin (primary rat hepatocytes [8]): blocks
- toxicity for HEK 293 cells (HEK 293 cells): non-toxic

Molecule: YYSPVPY [linear version of the same peptide, Tyr-Tyr-Ser-Pro-Val-Pro-Tyr]
- potency compared with another peptide (OATP1B3 [7]): considerably less potent

Molecule: CC(C)[C@@H]1NC(=O)[C@@H]2CCCN2C(=O)[C@H](CO)NC(=O)[C@H](Cc2ccc(O)cc2)NC(=O)[C@H](Cc2ccc(O)cc2)NC(=O)[C@H](Cc2ccc(O)cc2)NC(=O)[C@@H]2CCCN2C1=O [cyclic peptide of Seq. ID. No. 1, Tyr1-Tyr2-Ser-Pro-Val-Pro-Tyr7] (cyclo(PVPYYYS))
- inherent toxicity (morphology, growth, mitochondrial dehydrogenase activity of hepatocytes) (primary rat hepatocytes [2]): no apparent inherent toxicity
- toxicity for primary rat hepatocytes (primary rat hepatocytes [2]): non-toxic
- solubility in physiological saline [3]: high solubility
- inhibition of nodularin uptake / nodularin-induced apoptosis (OATP1B1 [9]): inhibited completely
- potency compared with another peptide (OATP1B1 [9]): lower potency than Ncp-M1
- inhibition of nodularin uptake / nodularin-induced apoptosis (OATP1B3 [7]): inhibited completely
- potency compared with another peptide (OATP1B3 [7]): lower potency than Ncp-M1
- preference for inhibition of OATP1B3 (OATP1B3 [7]): even higher OATP1 B3 preference
- inhibition of nodularin uptake / nodularin-induced apoptosis (Oatp1b2 [10]): inhibited completely
- potency compared with another peptide (Oatp1b2 [10]): lower potency than Ncp-M1
- toxicity for HEK 293 cells (HEK 293 cells): non-toxic

Molecule: microcystin-LR (peptide)
- apparent KM for uptake, deduced from apoptosis of primary rat hepatocytes [11]: 0.00027 nM

Molecule: O=C1OC(c2ccc(O)c(S(=O)(=O)O)c2)(c2ccc(O)c(S(=O)(=O)O)c2)c2c(Br)c(Br)c(Br)c(Br)c21 [BSP, bromosulfophthalein]
- inherent toxicity (morphology, growth, mitochondrial dehydrogenase activity of hepatocytes) (primary rat hepatocytes [12]): highly toxic

Molecule: C[C@H]1[C@H](C)CC[C@]2(C(=O)O)CC[C@]3(C)C(=CC[C@@H]4[C@@]5(C)CC[C@H](O)C(C)(C)[C@@H]5CC[C@]43C)[C@H]12 [ursolic acid]
- selectivity for OATP1B3 compared to OATP1B1 (OATP1B3 [13]): ten times
